Test results: patent US10350315B2, “Quinoline-3-carboxamide compounds and their use in diagnosis” (Westfaelische Wihelms-Universitaet Muenster, priority 2014, dated 2019)

How the values were obtained:
S100A9 [1] = molecular target: T1, S100A9 (Homo sapiens, UniProt P06702); assay: TLR4-S100A9 ELISA: blocking of S100A9 binding to TLR4/MD2; conditions: S100A9 2 μg/ml, 100 μM CES271-Cy5.5, two hours at room temperature
T1 sequence (P06702 1-114): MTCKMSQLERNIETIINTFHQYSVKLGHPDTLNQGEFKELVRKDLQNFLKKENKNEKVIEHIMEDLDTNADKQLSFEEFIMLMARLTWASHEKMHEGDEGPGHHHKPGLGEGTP
Method: FIG. 5: ELISA-based blocking study showing binding of S100A9 protein to TLR4/MD2 in the presence or absence of quinoline-3-carboxamide compounds covalently linked to a label, in this case Cy5.5-CES271.
Cy5.5-CES271 was successfully synthesized as described in the previous example. Studies were then conducted to verify that Cy5.5-CES271 maintained strong binding affinity for S100A9. In this regard, a specific ELISA (Enyme-linked Immunosorbent Assay) was developed to analyse S100A9 binding to TLR4. In this newly developed assay, the binding of S100A9 to TLR4 can be measured.
Briefly, TLR4/MD2 (3146-TM-050/CF, R&D Systems) was coupled to the wells of a 96-well plate and served as capturing molecule. After blocking of the unspecific binding sites by PBS/5% skim milk powder, plates were washed three times. S100A9 protein was added at a concentration of 2 μg/ml in the presence or absence of 100 μM CES271-Cy5.5 and incubated for two hours at room temperature. Unbound S100 protein was removed by washing the plates for three times, followed by the addition of a primary anti-S100A9-antibody (1 μg/ml, polyclonal, rabbit). After a washing step, the secondary anti-rabbit-IgG-antibody coupled to HRP (1 μg/ml, Cell Signalling) was added. TMB was used as substrate for HRP to quantify binding efficiency by absorbance readings at 450 nm in an ELISA reader (Anthos Mikrosysteme).

S100A9 [2] = molecular target: T2, S100A9 (Mus musculus, UniProt P31725); assay: Irritant contact dermatitis (ICD) mouse model, fluorescence reflectance imaging (FRI); assay type: in vivo, mice; conditions: FRI 3 h after tracer application
T2 construct: from tissue; host or cells: living mice (inflamed ear, joints) and explanted mouse heart, aorta and lungs
T2 sequence (P31725 2-113 limits assumed): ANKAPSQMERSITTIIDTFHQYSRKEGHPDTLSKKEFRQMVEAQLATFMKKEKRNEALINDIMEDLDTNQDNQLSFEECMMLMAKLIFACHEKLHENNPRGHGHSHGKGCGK
From the text: FIG. 6: Accumulation of Cy5.5-CES271 in a mouse model of contact dermatitis (ICD). (A) FRI images showing accumulation of a quinoline-3-carboxamide compound covalently linked to a label (Cy5.5-CES271) in a mouse model of contact dermatitis of the left ear in WT (left) and S100A9 deficient (right) mice. (B) FRI images and S100A9 staining showing accumulation of a quinoline-3-carboxamide compound covalently linked to a label (Cy5.5-CES271) in a mouse model of contact dermatitis.
FIG. 21: FRI images of Cy5.5-CES271 and Cy7-CES271 in a mouse model of contact dermatitis (ICD). (A) Representative Fluorescence Reflectance images of a Cy7-CES271 and Cy5.5-aS100A9 coinjected animal.
In vivo fluorescence reflectance imaging was performed with an IVIS Spectrum small-animal imaging system (Xenogen). Images were acquired and analyzed using Living Image 4.X software (Xenogen). […] Fluorescence emission was measured by Fluorescence emission radiance per incident excitation irradiance (p/sec/cm2/sr/μW/cm2).
ICD was induced by the application of 20 μl 1% croton oil in olive oil-acetone (1:4) to the ventral surface of the left ear of mice for 24 h (n=5 per group), whereas the right ear served as a control. […] In the Cy7 channel the quantum yield is much lower compared to the Cy5.5 channel, which means that the recorded signal with Cy5.5-CES271 is higher than compared to […] (right image; FIG. 21). […]

3-ethyl-2((1E,3E,5E)-5-(3-(1-(5-ethyl-4-hydroxy-1-methyl-2-oxo-1,2-dihydroquinolin-3-yl)-1,15-dioxo-2-phenyl-5,8,11-trioxa-2,14-diazanonadecan-19-yl)-1,1-dimethyl-6,8-disulfonato-1H-benzo[e]indol-2(3H)-ylidene)penta-1,3-dien-1-yl)-1,1-dimethyl-1H-benzo[e]indol-3-ium-6,8-disulfonate [Cy5.5-CES271]
Blocking of binding of S100A9 to TLR4/MD2 (decrease of ELISA signal, absorbance 450 nm) (S100A9 [1]): markedly block
Accumulation in the inflamed ear (S100A9 [2]; S100A9−/− deficient mice): not observed
Accumulation in the inflamed ear (S100A9 [2]; WT mice, croton oil on left ear): significant accumulation
